From PubChem BioAssay (NCI)
Values joined by “and” are separate entries in the source; they are usually repeats but may differ in a detail not shown here. Equal entries are not always repeated.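 Results reflect a 48-hour exposure of cells in 96-well plates to compound at five concentrations. Abbreviation: GI50, concentration required for 50% inhibition of growth. TGI is the concentration that stops growth completely.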

Experiments:
Assay in all cases: inhibition of tumour cell growth, NCI panel, 48 h
HOP-92 NSCLC = tested on: HOP-92 NSCLC
HS 578T breast = tested on: HS 578T breast
M14 melanoma = tested on: M14 melanoma
NCI-H226 lung = tested on: NCI-H226 lung
OVCAR-3 ovarian = tested on: OVCAR-3 ovarian
PC-3 prostate = tested on: PC-3 prostate
RPMI-8226 leukemia = tested on: RPMI-8226 leukemia
SK-MEL-5 melanoma = tested on: SK-MEL-5 melanoma
SNB-19 CNS = tested on: SNB-19 CNS
UO-31 renal = tested on: UO-31 renal

Row | SMILES | GI50 (HOP-92 NSCLC) [µM] | TGI (HOP-92 NSCLC) [µM] | GI50 (HS 578T breast) [µM] | TGI (HS 578T breast) [µM] | GI50 (M14 melanoma) [µM] | TGI (M14 melanoma) | GI50 (NCI-H226 lung) [µM] | TGI (NCI-H226 lung) [µM] | GI50 (OVCAR-3 ovarian) [µM] | TGI (OVCAR-3 ovarian) [µM] | GI50 (PC-3 prostate) [µM] | TGI (PC-3 prostate) [µM] | GI50 (RPMI-8226 leukemia) [µM] | TGI (RPMI-8226 leukemia) [µM] | GI50 (SK-MEL-5 melanoma) [µM] | TGI (SK-MEL-5 melanoma) [µM] | GI50 (SNB-19 CNS) [µM] | TGI (SNB-19 CNS) [µM] | GI50 (UO-31 renal) [µM] | TGI (UO-31 renal)
1 | CCOC(=O)c1cc(-c2ccc(OC)c(OC)c2)[nH]c1N/N=C/c1c(Cl)cccc1Cl | 4.58 | 26.8 | 2.71 | 18.8 | 2.32 | 14.9 µM | 1.81 | 9.36 | 0.74 | 2.64 | 2.14 | 19 | 3.31 | > 37.5 | 0.956 | 8.33 | 2.6 | 34.2 | 4.32 | 37.6 µM
2 | COC(=O)C1=C(C(=O)OC)C2OC1c1cc3ccccc3cc12 |  | 6.34 |  | 43.6 |  | 4.83 µM |  | 11.6 |  | 7.29 |  | 32.2 |  | 5.41 |  | 30.8 |  | 33.5 |  | 2.91 µM
3 | CC(C)(C)NC/C(=C\c1ccccc1)C(=O)c1ccccc1 | 2.4 | 6.56 | 6.11 | 60.7 | 1.8 | 4.2 µM | 2.2 | 11.2 | 1.19 | 3.19 | 3.44 | 13 | 2.14 | 7.31 | 1.53 | 2.91 | 4.27 | 18.4 | 1.41 | 2.88 µM
4 | COc1cc2ncn(-c3cc(OCc4ccccc4C(F)(F)F)c(C(C)=O)s3)c2cc1OC | 10.8 | > 25 | 19.3 | > 25 | > 25 | > 25 µM | > 25 | > 25 | > 25 | > 25 | > 25 | > 25 | > 25 | > 25 | > 25 | > 25 | > 25 | > 25 | > 25 | > 25 µM
5 | CN(O)C(=S)c1ccccc1 |  | > 100 |  | > 100 |  | > 38.7 µM |  | > 100 |  | 34.8 |  | > 59.1 |  | 1.68 |  | 16.3 |  | > 100 |  | 21.6 µM
6 | CC(O)CN1c2ccccc2Sc2ccc(Cl)cc21 (centres undefined) |  | > 10 |  | > 10 |  | > 10 µM |  | > 10 |  | > 10 |  | > 10 |  | > 10 |  | > 10 |  | > 10 |  | > 10 µM
7 | O=C(NN1C(=O)CSC12CCCC2)C(O)c1ccccc1 (centres undefined) | > 100 | > 100 | > 100 | > 100 | > 100 | > 100 µM | > 100 | > 100 | > 100 | > 100 | > 100 | > 100 | > 100 | > 100 | > 100 | > 100 | > 100 | > 100 | > 100 | > 100 µM
8 | O=C(Cn1c(C(=O)c2ccccc2)nc2ccccc21)c1ccc(F)cc1 | 60.2 | > 100 | 11.5 | > 100 | 3.67 | > 100 µM | > 100 | > 100 | 3.39 | > 25.5 | 13.6 | > 100 | 3.47 | > 52.5 | 4.13 | > 82.2 | 25.2 | > 100 | > 43.8 | > 100 µM
9 | NC(=Nc1nc(-c2ccccn2)cc2ccccc12)c1ccccn1 | 0.0765 | 5.92 | 0.316 | > 79.4 | 0.00816 | 0.534 µM and 2.86 µM | 0.237 | 23 | 0.00188 | > 100 | 0.0545 | > 100 | < 0.0175 | 0.515 | 0.0462 | > 78.1 |  | > 89.5 | 0.239 | 0.921 µM and 1.96 µM
